Assay results taken from patent publication US9096601B2 (CSPC Zhongqi Pharmaceutical Technology (Shijiazhuang) Co., …, priority 2010, dated 2015).

Assays:
Assay in all cases: In-vitro tumor cell proliferation inhibition, MTT
Format in all cases: cell-based, human
[1] = test system: non-small cell lung carcinoma cell strain PC-9 (EGFR delE746-A750 deletion mutation); settings: 72 hours
Description: (§1) The object of this assay was to test the inventive compounds for the inhibitory activity of in-vitro tumor cell proliferation. The MTT (tetreamethyl-azo-zole-salt) colorimetric method was used in this assay.
(§2) All of the above-mentioned non-small cell lung carcinoma cell strains and the breast carcinoma cell strain BT 474 were cultured with a RPMI-1640 complete culture medium containing 10% fetal bovine serum, 100 U/ml penicillin and 100 μg/ml streptomycin under 5% CO2 and at 37° C. The other cell strains were cultured with a DMEM complete culture medium containing 10% fetal bovine serum (having a MV4-11 cell content of 20%), 100 U/ml penicillin and 100 μg/ml streptomycin under 5% CO2 and 37° C.
(§3) A cell suspension having a cell concentration of 1-2×10^4 cells/ml was treated with a complete cell culture solution to adjust the cell concentration, wherein the cell concentrations for HCC827 and MV4-11 were adjusted to 6×10^4 cells/ml and 1×10^5 cells/ml respectively. The cell suspension was inoculated in a 96-well plate with 200 μl cell suspension/well and cultured overnight. Next day, the supernatant was drawn off and discarded. Then, the cells were treated with the tested compounds in a gradient concentration respectively. In the meanwhile, a negative control group free of the drug substance and an isovolumetric solvent control group (having a DMSO concentration of 1%) were used. The triplicate wells were used for each of dose groups. The culturing was conducted at 37° C. under 5% CO2. After 72 hours, […] having a concentration of 5 mg/ml was added to each of wells. The culturing was further conducted for 2-4 hours. The supernatant was discarded. Then […] was added to each of wells. The contents in the well were mixed homogenously by oscillation for 15 minutes. The absorbance (A) value was measured with a microplate reader at λ=570 nm (the A value is in the direct proportion to the number of living cells) and averaged. The relative cell proliferation inhibitory rate is (A570 control-group−A570 dose-group)/A570 control-group×100%. The assay was repeated for at least three times. The data was expressed as number average. The statistical data were analyzed using t-test. P<0.05 was considered significant. The cell proliferation inhibition of the following compounds was expressed as IC50 or inhibitory rate.

[2] = test system: non-small cell lung carcinoma cell strain HCC827; settings: 72 hours
Description: as §1, §2, §3

[3] = test system: non-small cell lung carcinoma cell strain H292 (EGFR WT); settings: 72 hours
Description: as §1, §2, §3

[4] = test system: non-small cell lung carcinoma cell strain H1975 (EGFR L858R/T790M mutation); settings: 72 hours
Description: as §1, §2, §3

[5] = test system: chronic granulocytic leukemia cell strain K562; settings: 72 hours
From the text: as §1
(§4) Human non-small cell lung carcinoma cell strains HCC827, PC-9, H1975 (EGFR L858R/T790M mutation) and H292 (EGFR WT), and other tumor type cell strains, including human acute myelogenous leukemia cell strain MV4-11, human chronic granulocytic leukemia cell strain K562, human squamous cell carcinoma cell strain A431, human breast carcinoma cell strains MDA-MB-468 and BT 474, human colon cancer cell strains SW480, HCT116 and SW620, human liver cancer cell strain Hep G2, human gastric cancer cell strain MK-45, and human malignant melanoma cell strain A375 used in this assay were all purchased from ATCC company, USA and kept in the laboratory. All of the above-mentioned non-small cell lung carcinoma cell strains and the breast carcinoma cell strain BT 474 were cultured with a RPMI-1640 complete culture medium containing 10% fetal bovine serum, 100 U/ml penicillin and 100 μg/ml streptomycin under 5% CO2 and at 37° C. The other cell strains were cultured with a DMEM complete culture medium containing 10% fetal bovine serum (having a MV4-11 cell content of 20%), 100 U/ml penicillin and 100 μg/ml streptomycin under 5% CO2 and 37° C.
as §3

[6] = test system: colon cancer cell strain SW620; settings: 72 hours
From the text: as §1, §4, §3

[7] = test system: breast carcinoma cell strain BT474; settings: 72 hours
From the text: as §1, §4, §3

[8] = test system: liver cancer cell strain Hep G2; settings: 72 hours, read-out: HEPG2 (IC50)
From the text: as §1, §4, §3

[9] = test system: gastric cancer cell strain MK-45; settings: 72 hours, read-out: MK45 (IC50)
From the text: as §1, §4, §3

[10] = test system: squamous cell carcinoma cell strain A431; settings: 72 hours
From the text: as §1, §4, §3

[11] = test system: acute myelogenous leukemia cell strain MV4-11; settings: 72 hours
From the text: as §1, §4, §3

[12] = test system: colon cancer cell strain HCT116; settings: 72 hours
From the text: as §1, §4, §3

[13] = test system: breast carcinoma cell strain MDA-MB-468; settings: 72 hours
From the text: as §1, §4, §3

[14] = test system: colon cancer cell strain SW480; settings: 72 hours
From the text: as §1, §4, §3

[15] = test system: malignant melanoma cell strain A375; settings: 72 hours
From the text: as §1, §4, §3

| Structure (SMILES) | IC50 [1] [nM] | IC50 [2] [nM] | IC50 [3] [nM] | IC50 [4] [nM] | IC50 [5] [nM] | IC50 [6] [nM] | IC50 [7] [nM] | IC50 [8] [nM] | IC50 [9] [nM] | IC50 [10] [nM] | IC50 [11] [nM] | IC50 [12] [nM] | IC50 [13] [nM] | IC50 [14] [nM] | IC50 [15] [nM] |
| --- | --- | --- | --- | --- | --- | --- | --- | --- | --- | --- | --- | --- | --- | --- | --- |
| Cc1nc(Nc2ccc(N3CCN(C)CC3)cc2)nc2c1nc(Nc1ccccc1)n2C(C)C [Compounds 8-34] | 420 | 63.1 | 1230 | 6310 | 1600 | > 10000 | 2630 | 8460 | 1660 | 2570 | 125 | 10500 | 3260 | 9950 | 6570 |
| CN1CCN(c2ccc(Nc3ncc4nc(Nc5ccc(F)c(Cl)c5)n(C5CCCC5)c4n3)cc2)CC1 [Compounds 8-35] | 1.5 | 0.2 | 20.3 | 1520 | 232 | 2300 | 192 | 4340 | 1110 | 635 | 135 | 676 | 1920 | 5930 | 3250 |
| CN1CCN(NC(=O)c2ccc(Nc3ncc4nc(Nc5cccnc5)n(C5CCCC5)c4n3)cc2)CC1 [Compounds 8-37] | 348 | 130 | 5850 | > 10000 | 888 | > 10000 | 4520 | > 10000 | > 10000 | > 10000 | 102 | > 10000 | > 10000 | > 10000 | > 10000 |
| CC(C)n1c(Nc2ccc(Cl)nc2)nc2cnc(Nc3ccc(N4CCN(C)CC4)cc3)nc21 [Compounds 8-41] | 209 | 16.5 | 268 | 501 | 146 | 2140 | 2090 | 2200 | 3340 | 2740 | 1970 | 5430 | 4490 | 5400 | > 10000 |
| CC(C)n1c(Nc2ccc(OCc3cccc(F)c3)c(Cl)c2)nc2cnc(Nc3ccc(N4CCOCC4)cc3)nc21 [Compounds 8-42] | 3320 | 4260 | 673 | > 10000 | 922 | > 10000 | 5100 | > 10000 | 5100 | 2240 | 6640 | > 10000 | 1700 | > 10000 | 498 |
| CN1CCN(c2ccc(Nc3ncc4nc(Nc5ccc(Br)cc5)n(C5CCCC5)c4n3)cc2)CC1 [Compounds 8-43] | 51.9 | 0.3 | 102 | 231 | 122 | 5750 | 1830 | 5930 | 234 | 484 | 21.2 | 2570 | 1030 | 5750 | 1910 |
| CN1CCN(c2ccc(Nc3ncc4nc(Nc5cccc([N+](=O)[O-])c5)n(C5CCCC5)c4n3)cc2)CC1 [Compounds 8-44] | 1.5 | 0.3 | 2.9 | 695 | 96.5 | 2510 | 682 | > 10000 | 1350 | 409 | 1140 | > 10000 | 2670 | 6160 | 1740 |
| CN1CCN(c2ccc(Nc3ncc4nc(NCc5ccccc5)n(C5CCCC5)c4n3)cc2)CC1 [Compounds 8-45] | 9.7 | 0.2 | 13.9 | 1140 | 218 | 4970 | 870 | > 10000 | 3740 | 1890 | 59.4 | 7080 | 2870 | 7750 | 9260 |
| C#Cc1cccc(Nc2nc3cnc(Nc4ccc(N5CCN(C)CC5)cc4)nc3n2C2CCCC2)c1 [Compounds 8-46] | 3.5 | 0.3 | > 10000 | 770 | 250 | 3620 | 792 | > 10000 | 417 | 426 | 4690 | 9070 | 751 | 4010 | 400 |
| CN1CCN(c2ccc(Nc3ncc4nc(Nc5ccc(Br)cc5F)n(C5CCCC5)c4n3)cc2)CC1 [Compounds 8-47] | 16.3 | 0.3 | 44.2 | 884 | 97.2 | 4950 | 554 | 8460 | 1180 | 299 | 224 | 6090 | 3190 | 5530 | 1570 |
| c1ccc(Nc2nc3cnc(Nc4ccc(CN5CCOCC5)cc4)nc3n2C2CCCC2)cc1 [Compounds 8-48] | 26.2 | 0.2 | 18.5 | 4580 | 230 | 2940 | 525 | > 10000 | 297 | 788 | 583 | > 10000 | 2130 | 9890 | 2080 |
| CN1CCN(c2ccc(Nc3ncc4nc(Nc5cccc(F)c5)n(C5CCCC5)c4n3)cc2)CC1 [Compounds 8-49] | 0.2 | 0.3 | 4.5 | 310 | 121 | 1440 | 2670 | 9240 | 543 | 586 | 193 | 1440 | 987 | 5040 | 1980 |
| CN1CCN(c2ccc(Nc3ncc4nc(Nc5ccccc5)n(C5CCCCC5)c4n3)cc2)CC1 [Compounds 8-50] | 3.5 | 0.3 | > 10000 | 182 | 30.5 | 964 | 2160 | 8250 | 218 | 82.9 | 64.4 | 2470 | 207 | 2720 | 1560 |
| CN1CCN(c2ccc(Nc3ncc4nc(Nc5cccc(O)c5)n(C5CCCC5)c4n3)cc2)CC1 [Compounds 8-51] | 9.5 | 0.2 | 22.3 | 630 | 11.3 | 733 | 764 | 8220 | 248 | 248 | 3.6 | 4140 | 351 | 6720 | 539 |
